Experimental data from patent US10975060B2, “High relaxivity gadolinium chelate compounds for use in magnetic resonance imaging” (BAYER PHARMA AKTIENGESELLSCHAFT, priority 2016, dated 2021).
Entries after “also recorded” stand apart in the source; their conditions may differ. Like-named read-outs stand apart in the source and are kept apart here.

Key:
[1] = Pharmacokinetic parameters of blood plasma levels after i.v. bolus in male rats (three compartment model); type: in vivo, rats (Han-Wistar); conditions: for AUC∞ Area under the curve (to infinity) / MRT Mean residence time / V1 + V2 Volume, compartments V1 + V2 / V2 Volume, compartment V2 / Vd, ss Volume of distribution at steady state / t½ α Half-life, compartment V1 / t½ β Half-life, compartment V2 / t½ γ Half-life, compartment V3: i.v. bolus 0.1 mmol Gd/kg, mean, n=3
Method: Pharmacokinetic parameters of Example 6 were determined in male rats (Han-Wistar, 235-270 g, n=3). The compound was administered as a sterile aqueous solution (53.8 mmol Gd/L) as a bolus in the tail vein of the animals. The dose was 0.1 mmol Gd/kg. Blood was sampled 1, 3, 5, 10, 15, 30, 60, 90, 120, 240, 360, 480, and 1440 min post injection and the Gd concentration was determined by Inductively Coupled Plasma Mass Spectrometry (ICP-MS Agilent 7500a, Waldbronn, Germany). The blood level was converted to plasma concentrations by division by 0.625 (plasma fraction of rat blood, assuming strictly extracellular distribution). As a control, 3 animals (Han-Wistar, 248-289 g), were treated in the same way with Reference Compound 1 (Gadovist®), a low molecular weight contrast agent.
The fit of the obtained data to a three compartment model (Phoenix-WinNonlin) yielded the pharmacokinetic parameters which are shown in Table 3.

[2] = Water solubility (exploratory, 10 mM Tris-HCl, 20 °C); type: physicochemical; conditions: water (10 mM Tris-HCl buffer), pH 7.4
Method: The exploratory water solubilities of the compounds were determined at room temperature (20° C.) in 0.5 mL buffer solution (10 mM Tris-HCl) in the microcentrifuge tubes (Eppendorf, 2.0 mL safe-lock caps). The solid compounds were added stepwise to the buffer solution. The suspension was mixed using a shaker (Heidolph Reax 2000) and treated 5 min in an ultrasound bath (Bandelin, Sonorex Super RK255H).

[3] = Contrast-enhanced magnetic resonance angiography (CE-MRA) at 1.5 T, intraindividual comparison; type: in vivo, New Zealand white rabbits; conditions: rabbits
Method: Reference compound 1 (Gadovist®), as an approved representative of the Gadolinium-based MRI contrast agents, was used in both dose protocols (100 μmol Gd/kg bw and 25 μmol Gd/kg bw) and compared to example compound 6 (25 μmol Gd/kg bw).
The contrast-enhanced magnetic resonance angiography study was performed at a clinical 1.5 T Scanner (Magnetom Avanto Fit, Siemens Healthcare, Erlangen, Germany). For optimal signal exploitation, a spine in combination with a body-flex coil was used for the data acquisition. The study was performed on male New Zealand white rabbits (weight 3.6-3.9 kg, n=4, Charles River Kisslegg). The animals received all 3 contrast protocols within one imaging session. The order of the contrast protocols was randomized between the animals.
All animals are initially anesthetized using a body weight-adjusted intramuscular injection of a mixture (1+2) of xylazine hydrochloride (20 mg/mL, Rompun 2%, Bayer Vital GmbH, Leverkusen, Germany) and ketamine hydrochloride (100 mg/mL, Ketavet, Pfizer, Pharmacia GmbH, Berlin, Germany) using 1 mL/kg body weight. The continuous anesthesia of the intubated animals (endotracheal tube, Rueschelit Super Safe Clear, cuff 3.0 mm, Willy Ruesch A G, Kernen, Germany) is achieved by the intravenous injection of 0.9 mg propofol per kilogram per hour (10 mg/mL, Propofol-Lipuro 1%, B. Braun Melsungen A G, Melsungen, Germany). The continuous intravenous injection is performed using a MR infusion system (Continuum MR Infusion System, Medrad Europe B. V., A E Beek, Germany). The tracheal respiration (SV 900C, Maquet, Rastatt, Germany) is performed with 55% oxygen, forty breaths per minute, and a breathing volume of 4 mL per kilogram body weight per minute.
Based on a localizer MRI sequence oriented in coronal, axial, and sagittal directions the anatomic course of the aorta is acquired. A small intravenous test bolus (0.2 mL, Reference compound 1 followed by 1.3 mL saline) was administered to determine the time to peak interval (descending aorta) using a test bolus sequence. The MRA delay time between the start of the contrast injection and the start of image acquisition was calculated by subtracting the time to k-space center from the time to peak interval. For MRA a 3D FLASH sequence (TR=3.3 ms, TE=1.2 ms, flip=25°) was acquired before and after injection of the contrast agent considering the delay time. Both measurements were performed within expiratory breath hold. The time interval for the intraindividual comparison between the different contrast agent applications was twenty to thirty minutes.
Quantitative image evaluation was performed on the subtraction images (post contrast—baseline). […]

[4] = Relaxivity measurements at 1.4 T (MiniSpec mq60, 60 MHz, 37 °C) in water and human plasma; type: physicochemical; conditions: 1.41 T, normalized to Gd
Procedure, shortened: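 T1 by inversion recovery and T2 by CPMG, relaxation delay ≥5×T1, at three Gd concentrations between 0.05 and 2 mM in water or fresh citrated human plasma. Relaxivities r1, r2 taken as slopes of relaxation rate versus Gd concentration, verified by ICP-MS.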

[5] = Dynamic CT diffusion phantom study (dialysis cassette in fetal bovine serum); type: physicochemical; conditions: dialysis cassette 20,000 MWCO, 20 mmol Gd/L, CT signal over 30 h
Procedure, shortened: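 Contrast agent at 20 mmol Gd/L in a 20 kDa MWCO dialysis cassette was placed in fetal bovine serum. Diffusion was followed by clinical CT at 100 kV and 104 mA at time points from 0 min to 30 h. Regions of interest were drawn on one central 2.4 mm slice per time point.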

[6] = 37 °C, cited from earlier work
[7] = subtraction images, carotid artery, aorta, renal arteries

CC(C)CN(CC(=O)NCC(CNC(=O)CN(CC(C)C)C(=O)CN1CCN(CC(=O)[O-])CCN(CC(=O)[O-])CCN(CC(=O)[O-])CC1)(CNC(=O)CN(CC(C)C)C(=O)CN1CCN(CC(=O)[O-])CCN(CC(=O)[O-])CCN(CC(=O)[O-])CC1)CNC(=O)CN(CC(C)C)C(=O)CN1CCN(CC(=O)[O-])CCN(CC(=O)[O-])CCN(CC(=O)[O-])CC1)C(=O)CN1CCN(CC(=O)[O-])CCN(CC(=O)[O-])CCN(CC(=O)[O-])CC1.[Gd+3].[Gd+3].[Gd+3].[Gd+3] [Example 6, Tetragadolinium {4,10-bis(carboxylatomethyl)-7-[3-isobutyl-8,8-bis({[(isobutyl{[4,7,10-tris(carboxylatomethyl)-1,4,7,10-tetraazacyclododecan-1-yl]acetyl}amino)acetyl]-amino}methyl)-15-methyl-2,5,11-trioxo-13-{[4,7,10-tris(carboxylatomethyl)-1,4,7,10-tetraazacyclododecan-1-yl]acetyl}-3,6,10,13-tetraazahexadec-1-yl]-1,4,7,10-tetraaza-cyclododecan-1-yl}acetate]
pharmacokinetic compared to that of the reference compound 1 ([1]; 0.1 mmol Gd/kg i.v.): very similar
AUC∞ Area under the curve (to infinity) [1]: 10801 µmol·min/L
MRT Mean residence time [1]: 40.7 min
V1 + V2 Volume, compartments V1 + V2 [1]: 0.14 L/kg
V2 Volume, compartment V2 [1]: 0.12 L/kg
Vd, ss Volume of distribution at steady state [1]: 0.27 L/kg
t½ α Half-life, compartment V1 [1]: 2.45 min
t½ β Half-life, compartment V2 [1]: 22.4 min
t½ γ Half-life, compartment V3 [1]: 1041 min
Solubility [2]: >1000 mg/100 mL
vascular contrast (MR-angiograms, qualitative) at 25 μmol/kg compared to reference compound 1 at 100 μmol/kg ([3]; example compound 6 at 25 μmol Gd/kg bw): No qualitative difference
signal enhancement at vascular regions, 25 μmol/kg compared to reference compound 1 at reduced (identical) dose (25 μmol/kg) [3, 7]: significantly (p<0.001) higher
signal enhancement at vascular regions, 25 μmol/kg compared to reference compound 1 at standard dose (100 μmol/kg) [3, 7]: No significant difference; also recorded: similar
r1 human plasma ([4]; human plasma): 14.1 L/mmol/s
r1 water ([4]; water): 11.6 L/mmol/s
Diffusion half-live (20 kDa) [5]: 15.0 h

O=C([O-])CN1CCN(CC(=O)[O-])CCN([C@H](CO)[C@H](O)CO)CCN(CC(=O)[O-])CC1.[Gd+3] (racemic) [RC1, gadobutrol, reference compound]
AUC∞ Area under the curve (to infinity) [1]: 11334 µmol·min/L
MRT Mean residence time [1]: 40.5 min
V1 + V2 Volume, compartments V1 + V2 [1]: 0.11 L/kg
V2 Volume, compartment V2 [1]: 0.16 L/kg
Vd, ss Volume of distribution at steady state [1]: 0.26 L/kg
t½ α Half-life, compartment V1 [1]: 1.80 min
t½ β Half-life, compartment V2 [1]: 22.1 min
t½ γ Half-life, compartment V3 [1]: 780 min
vascular contrast at the reduced dose (25 μmol/kg) of the reference compound ([3]; 25 μmol Gd/kg bw versus standard dose 100 μmol/kg and example compound 6 at 25 μmol/kg): considerable lower
Diffusion half-live (20 kDa) [5]: 2.1 h
r1 human plasma ([6]; 1.5 T, bovine plasma instead of human plasma, from Rohrer et al.): 5.2 L/mmol/s
r1 water ([6]; 1.5 T, from Rohrer et al.): 3.3 L/mmol/s
r1 human plasma ([6]; 3.0 T, plasma, reference compounds marked ^ (Rohrer et al., bovine plasma per Table 1 footnote)): 5.0 ± 0.3 L/mmol/s
r1 water ([6]; 3.0 T, reference compounds marked ^ (Rohrer et al. per Table 1 footnote)): 3.2 ± 0.3 L/mmol/s
